# Reference: patent US20150307938A1, “METHOD TO IDENTIFY A NOVEL CLASS OF IMMUNOLOGIC ADJUVANTS” (Lancell, L.L.C., priority 2011, published 2015)
# Marks after values point to notes of the source that are not given here.
# Test system: full thickness skin
# Assay: Whole genome array of skin gene expression after topical DBP (time course)
# Type: in vivo, C57BL/6J mice
# Experimental: Mice: C57BL/6J female mice obtained from The Jackson Laboratory were used between 8 and 12 weeks of age.
# Treatment: Mice were untreated or treated topically on the dorsal side of each ear with […] of dibutylphthalate (DBP). At the designated time points after treatment, the animals were euthanized and the ears washed with 70% isopropanol. Full thickness skin was obtained from the dorsal side of both ears and placed immediately in liquid nitrogen. The time between euthanasia and placement of both skin samples in liquid nitrogen was less than 1 minute. Each sample for RNA extraction contained two dorsal ear skin samples obtained from a single mouse both of whose ears received the same treatment.
# RNA Extraction: While in liquid nitrogen, the skin was pulverized with a motorized mortar and pestle (CryoGrinder), transferred by inversion of the mortar directly into 1.5 ml cryogenic vials (Nalgene) and stored in liquid nitrogen until RNA extraction. Total RNA from both ears was extracted by homogenization (Pro200) in TRIzol Reagent (Invitrogen) with 7.5 μg of RNase-free glycogen added to the mixture, according to the manufacturer's directions. The RNA was purified on a solid phase RNeasy MinElute Cleanup column (Qiagen) and eluted with 17 μL of RNase-free water. The samples were stored at −20° C. until use.
# Quantification of RNA: RNA yields were quantified by UV absorption using a NanoDrop NG-1000 spectrophotometer, where 1 AU 260 equals 40 μg RNA/ml. Purity was estimated by the 260 and 280 nm absorbance ratio; values between 1.7 and 2.1 were considered acceptable.
# Assessment of RNA Quality: The quality of sample RNA was assessed using a RNA 6000 LABCHIP Kit on an Agilent 2100 Bioanalyzer. The Bioanalyzer determines the integrity/purity of the RNA samples and permits the screening of total and mRNA sample degradation and ribosomal RNA contamination. An RNA 6000 ladder was also loaded on a specified well and used as a reference for data analysis and a built-in quality control measure. The quality and integrity of the RNA was determined through visual inspection of each electropherogram. In general, only samples with a RIN (RNA integrity number) of 7 or greater, as determined by the Bioanalyzer, were used for gene arrays. This quality control analysis was repeated following the labeling procedure to ensure that the probes were efficiently labeled and had the correct size before hybridization to the chips. All samples that were run on genome wide arrays were obtained as independent duplicates from two individual mice.
# Microarray Data Interpretation: Gene expression was compared between untreated and treated total RNA samples. “Transition” data, which represent the change in expression level for a given gene, are presented as a “weighted difference.” Changes in gene expression level were considered to be significant when the adjusted p values were less than […]. The “gene expression signature” arbitrarily includes only those genes that were transcribed with a weighted increase of 2.0 or greater, which was sustained over the subsequent time points tested.
# The weighted difference is a metric that takes into account both the variability between different time-points and the variability between replicates at the same time-point. The calculations are performed for each time-point transition, i.e., 30 minutes vs. 1 hour, 1 hour vs. 2 hours, etc. There are two steps to the calculation: the calculation of a modified Euclidean difference between the two time-points, and the calculation of the Euclidean difference between the replicates within each time-point. The first measure is an unweighted difference, while the final metric given in the spreadsheet “weights” this difference by taking into account the second measure.
# In a Euclidean difference calculation, each data point is considered as a vector in a multi-dimensional space, and the actual straight-line distance between the data points is calculated. […]
smiles,measurement,setting,value
"CCCCOC(=O)c1ccccc1C(=O)OCCCC [DBP, dibutylphthalate]",Ier3 Change in Gene Expression (Weighted Difference),30 min to 1 hr Transition,7.145
same,Il10ra Change in Gene Expression (Weighted Difference),30 min to 1 hr Transition,0.6152
same,Jun Change in Gene Expression (Weighted Difference),30 min to 1 hr Transition,0.7234
same,Junb Change in Gene Expression (Weighted Difference),30 min to 1 hr Transition,2.771
same,LOC100046066 Change in Gene Expression (Weighted Difference),30 min to 1 hr Transition,2.144
same,Madcam1 Change in Gene Expression (Weighted Difference),30 min to 1 hr Transition,0.046
same,Med17 Change in Gene Expression (Weighted Difference),30 min to 1 hr Transition,0.06201
same,Mkks Change in Gene Expression (Weighted Difference),30 min to 1 hr Transition,0.2811
same,Mndal Change in Gene Expression (Weighted Difference),30 min to 1 hr Transition,0.3272
same,Myc Change in Gene Expression (Weighted Difference),30 min to 1 hr Transition,1.895
same,N6amt2 Change in Gene Expression (Weighted Difference),30 min to 1 hr Transition,0.0833
same,Nr4a1 Change in Gene Expression (Weighted Difference),30 min to 1 hr Transition,1.556
same,P2ry1 Change in Gene Expression (Weighted Difference),30 min to 1 hr Transition,1.47
same,Prf1 Change in Gene Expression (Weighted Difference),30 min to 1 hr Transition,0.5182
same,Sik1 Change in Gene Expression (Weighted Difference),30 min to 1 hr Transition,0.7241
same,Slc39a8 Change in Gene Expression (Weighted Difference),30 min to 1 hr Transition,2.304
same,Tmed3 Change in Gene Expression (Weighted Difference),30 min to 1 hr Transition,−0.1953
same,Zfp36 Change in Gene Expression (Weighted Difference),30 min to 1 hr Transition,2.8
same,% Shared (DBP-induced genes also TLR-induced),1 hr,69%
same,"DBP Unique genes, number",1 hr,26
same,"DBP-Induced genes (≧2x Increased Expression), number",1 hr,83
same,"TLR-Induced among DBP-induced genes, number",1 hr,57^#
same,Acot5 Change in Gene Expression (Weighted Difference),1 hr to 2 hr Transition,12.15
same,Akr1c18 Change in Gene Expression (Weighted Difference),1 hr to 2 hr Transition,−0.2471
same,Atp2c2 Change in Gene Expression (Weighted Difference),1 hr to 2 hr Transition,0.331
same,Btg2 Change in Gene Expression (Weighted Difference),1 hr to 2 hr Transition,−0.01005
same,Ccr4 Change in Gene Expression (Weighted Difference),1 hr to 2 hr Transition,−0.03096
same,Cdh10 Change in Gene Expression (Weighted Difference),1 hr to 2 hr Transition,−0.1519
same,Cish Change in Gene Expression (Weighted Difference),1 hr to 2 hr Transition,0.9334
same,Cox17 Change in Gene Expression (Weighted Difference),1 hr to 2 hr Transition,0.1604
same,Cysltr1 Change in Gene Expression (Weighted Difference),1 hr to 2 hr Transition,−1.794
same,Egr1 Change in Gene Expression (Weighted Difference),1 hr to 2 hr Transition,−0.2127
same,Egr2 Change in Gene Expression (Weighted Difference),1 hr to 2 hr Transition,−0.1057
same,Frk Change in Gene Expression (Weighted Difference),1 hr to 2 hr Transition,−0.2672
same,Gbp8 Change in Gene Expression (Weighted Difference),1 hr to 2 hr Transition,−1.039
same,Gem Change in Gene Expression (Weighted Difference),1 hr to 2 hr Transition,0.6484
same,Gimap7 Change in Gene Expression (Weighted Difference),1 hr to 2 hr Transition,0.1331
same,Ier3 Change in Gene Expression (Weighted Difference),1 hr to 2 hr Transition,0.7786
same,Il10ra Change in Gene Expression (Weighted Difference),1 hr to 2 hr Transition,0.1326
same,Jun Change in Gene Expression (Weighted Difference),1 hr to 2 hr Transition,−0.001533
same,Junb Change in Gene Expression (Weighted Difference),1 hr to 2 hr Transition,−0.0754
same,LOC100046066 Change in Gene Expression (Weighted Difference),1 hr to 2 hr Transition,−0.8577
same,Madcam1 Change in Gene Expression (Weighted Difference),1 hr to 2 hr Transition,−0.04597
same,Med17 Change in Gene Expression (Weighted Difference),1 hr to 2 hr Transition,0.1073
same,Mkks Change in Gene Expression (Weighted Difference),1 hr to 2 hr Transition,−0.1657
same,Mndal Change in Gene Expression (Weighted Difference),1 hr to 2 hr Transition,0.5733
same,Myc Change in Gene Expression (Weighted Difference),1 hr to 2 hr Transition,−0.01449
same,N6amt2 Change in Gene Expression (Weighted Difference),1 hr to 2 hr Transition,−0.07791
same,Nr4a1 Change in Gene Expression (Weighted Difference),1 hr to 2 hr Transition,−0.4734
same,P2ry1 Change in Gene Expression (Weighted Difference),1 hr to 2 hr Transition,−0.5171
same,Prf1 Change in Gene Expression (Weighted Difference),1 hr to 2 hr Transition,−0.3117
same,Sik1 Change in Gene Expression (Weighted Difference),1 hr to 2 hr Transition,0.007769
same,Slc39a8 Change in Gene Expression (Weighted Difference),1 hr to 2 hr Transition,1.188
same,Tmed3 Change in Gene Expression (Weighted Difference),1 hr to 2 hr Transition,−0.2575
same,Zfp36 Change in Gene Expression (Weighted Difference),1 hr to 2 hr Transition,0.1025
same,% Shared (DBP-induced genes also TLR-induced),2 hr,63%
